From PubChem BioAssay (NCI) come the findings set out here.

Test systems include SNB-75 CNS; NCI-H460 lung; SK-MEL-28 melanoma; MDA-MB-231 breast; MALME-3M melanoma; 786-0 renal; UO-31 renal; IGROV1 ovarian; SNB-19 CNS; MOLT-4 leukemia.
Assay in all cases: DTP human tumour cell line panel, 48 h

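Five concentrations, 48 hours, 96-well plates. The concentration for full growth arrest is given as TGI.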

For orientation: TGI means the concentration giving total growth inhibition. Low readings indicate more potent growth arrest, high ones less potent growth arrest. As to `O=C(Cn1cc(Br)c(=O)[nH]c1=O)c1ccc(-c2ccccc2)cc1`, the TGI was 6.51 µM in the assay with SNB-75 CNS; above 48 µM in the assay with NCI-H460 lung; above 19.9 µM with SK-MEL-28 melanoma; above 52 µM with MDA-MB-231 breast; above 100 µM with MALME-3M melanoma; above 100 µM in the assay on 786-0 renal. For the same compound, the total growth inhibition concentration (TGI) in the assay on UO-31 renal was above 100 µM; in the assay with IGROV1 ovarian, above 33.1 µM; with SNB-19 CNS it was 13.2 µM; in the assay with MOLT-4 leukemia it was above 27.5 µM.

In the case of `Nc1ccccc1C#CC(=O)c1cccc(C(F)(F)F)c1`, the TGI in the assay with SNB-75 CNS turned out to be 27.4 µM; in the assay with NCI-H460 lung, 47.6 µM; in the assay with MDA-MB-231 breast it was 4.97 µM; in the assay on MALME-3M melanoma, 22.1 µM; in the assay with 786-0 renal, 4.68 µM; in the assay with UO-31 renal, 2.55 µM. The TGI in the assay with IGROV1 ovarian was determined as 1.99 µM; in the assay with SNB-19 CNS, 27.6 µM.

Regarding `N#Cc1c(=O)c2ccccc2n2ccccc12`, the TGI in the assay on SNB-75 CNS, with NCI-H460 lung, with SK-MEL-28 melanoma, in the assay on MDA-MB-231 breast, with MALME-3M melanoma and with 786-0 renal was above 100 µM in each case. Also, the TGI in the assay on UO-31 renal, in the assay with IGROV1 ovarian and in the assay on SNB-19 CNS was above 100 µM each time.

`CC(C)(C)C(=O)Oc1ccc(/C=C/C(=O)c2ccc(OC(=O)C(C)(C)C)cc2)cc1`: the TGI with SNB-75 CNS, with NCI-H460 lung, with SK-MEL-28 melanoma, in the assay on MDA-MB-231 breast, in the assay on MALME-3M melanoma and in the assay on 786-0 renal was above 100 µM throughout. Besides, the concentration for total growth inhibition (TGI) with IGROV1 ovarian was above 100 µM; with SNB-19 CNS, above 100 µM; with MOLT-4 leukemia it was 53.2 µM.

For `O=[N+]([O-])c1ccc(C2ON=C(c3ccccc3)N2C23CC4CC(CC(C4)C2)C3)cc1` (centres undefined), the total growth inhibition concentration (TGI) in the assay with SNB-75 CNS, in the assay with NCI-H460 lung, in the assay with SK-MEL-28 melanoma, in the assay with MDA-MB-231 breast, with MALME-3M melanoma and in the assay with 786-0 renal was above 10 µM in each case. Besides, the TGI in the assay on IGROV1 ovarian, in the assay with SNB-19 CNS and in the assay with MOLT-4 leukemia was above 10 µM in each case.

With `COc1ccc(C2=[S+]C(c3ccccc3)(c3ccccc3)c3ccccc32)cc1`, the concentration for total growth inhibition (TGI) in the assay on SNB-75 CNS was 91.1 µM; in the assay with NCI-H460 lung it was 30.5 µM; in the assay on SK-MEL-28 melanoma, 58.5 µM; in the assay with MDA-MB-231 breast it was 61.1 µM; with MALME-3M melanoma, 46.1 µM; in the assay on 786-0 renal it was 34.9 µM. Also, the values for the TGI in the assay with IGROV1 ovarian, with SNB-19 CNS and with MOLT-4 leukemia were above 100 µM, above 100 µM and 61 µM, respectively.

Regarding `CC(O)c1cc2c(s1)C(=O)c1c(C(C)O)csc1C2=O` (centres undefined), the TGI was determined as 0.566 µM in the assay with SNB-75 CNS; 0.148 µM in the assay on NCI-H460 lung; 0.466 µM in the assay on SK-MEL-28 melanoma; 0.482 µM in the assay on MDA-MB-231 breast; 0.115 µM with MALME-3M melanoma; 2.08 µM in the assay with 786-0 renal. The figures for the TGI with UO-31 renal, with IGROV1 ovarian and with SNB-19 CNS were 0.776 µM, 0.468 µM and 1.08 µM, respectively.

Regarding `NC(=O)CSc1c2cc(O)ccc2nc2ccc(O)cc12`, the TGI in the assay on SNB-75 CNS, with NCI-H460 lung, in the assay with SK-MEL-28 melanoma, with MDA-MB-231 breast, with MALME-3M melanoma and in the assay with 786-0 renal was above 10 µM throughout. Further, the TGI in the assay with IGROV1 ovarian, in the assay with SNB-19 CNS and in the assay with MOLT-4 leukemia was above 10 µM each time.

Take `Nc1nccc(NCC2(CO)CC(OCc3ccccc3)C2)n1` (centres undefined): the TGI in the assay with SNB-75 CNS, in the assay with NCI-H460 lung, in the assay on SK-MEL-28 melanoma, in the assay on MDA-MB-231 breast, in the assay on MALME-3M melanoma and with 786-0 renal was above 100 µM each time. For the same compound, the concentration for total growth inhibition (TGI) in the assay on UO-31 renal, in the assay on IGROV1 ovarian and in the assay with MOLT-4 leukemia was above 100 µM in each case.

Take `N#CC1=C(N)N(/N=C/c2ccccc2)C(c2ccccc2)C1(C#N)C#N` (centres undefined): the concentration for total growth inhibition (TGI) in the assay on SNB-75 CNS was 31.6 µM; in the assay on SK-MEL-28 melanoma it was 9.91 µM; in the assay with MDA-MB-231 breast, 31.4 µM; in the assay on MALME-3M melanoma, 4.39 µM; in the assay on 786-0 renal, 16.1 µM; in the assay with UO-31 renal it was 29.7 µM. The TGI was 29.1 µM in the assay with IGROV1 ovarian, above 54.6 µM in the assay with SNB-19 CNS and 5.5 µM in the assay on MOLT-4 leukemia.

As to `Cc1cccc2[nH]c3c(c(O)cc4[nH]c5cccc(C)c5c(=O)c43)c(=O)c12`, the TGI with SNB-75 CNS was above 10 µM; with NCI-H460 lung, above 10 µM; with SK-MEL-28 melanoma it was above 10 µM; with MDA-MB-231 breast, above 10 µM; in the assay with MALME-3M melanoma, above 10 µM; in the assay on 786-0 renal, 8.03 µM. The TGI with IGROV1 ovarian, in the assay with SNB-19 CNS and in the assay with MOLT-4 leukemia was above 10 µM in each case.

With `N#[N+]c1c([O-])c2ccccc2c2ccccc12`, the concentration for total growth inhibition (TGI) in the assay with SNB-75 CNS was 82.9 µM; with NCI-H460 lung, above 100 µM; in the assay on SK-MEL-28 melanoma, above 100 µM; with MDA-MB-231 breast, above 100 µM; in the assay with 786-0 renal, above 100 µM; in the assay on UO-31 renal, above 100 µM. Moreover, the TGI in the assay with IGROV1 ovarian, in the assay on SNB-19 CNS and with MOLT-4 leukemia was above 100 µM each time.

For the compound `CN=C(Nc1ccc(OC)c2ccccc12)SC`, the total growth inhibition concentration (TGI) with SNB-75 CNS, in the assay on SK-MEL-28 melanoma, with MDA-MB-231 breast, with MALME-3M melanoma, in the assay with 786-0 renal and in the assay on IGROV1 ovarian was above 10 µM in each case. In addition, the total growth inhibition concentration (TGI) with SNB-19 CNS and in the assay on MOLT-4 leukemia was above 10 µM in each case.

As for `COc1cc(C(=O)Oc2c(C(C)=O)sc3c2c(=O)n(-c2ccccc2)c(=S)n3-c2ccccc2)cc(OC)c1OC`, the TGI was found to be 50.1 µM with SNB-75 CNS; 29.8 µM in the assay with NCI-H460 lung; 49.5 µM in the assay with SK-MEL-28 melanoma; 88.8 µM in the assay on MDA-MB-231 breast; 27.8 µM in the assay on MALME-3M melanoma; 55.2 µM in the assay with 786-0 renal. In addition, the TGI is 43.5 µM with IGROV1 ovarian, 68 µM in the assay on SNB-19 CNS and 50.5 µM with MOLT-4 leukemia.

In the case of `COc1ccc(-c2c(-c3ccc(OC)cc3)n3c(=O)n(C)c(=O)n23)cc1`, the TGI in the assay with SNB-75 CNS, with SK-MEL-28 melanoma, in the assay on MDA-MB-231 breast, in the assay with MALME-3M melanoma, in the assay with 786-0 renal and in the assay with UO-31 renal was above 100 µM in each case. In addition, the TGI in the assay on IGROV1 ovarian is above 100 µM; with SNB-19 CNS, 97.7 µM; with MOLT-4 leukemia, above 100 µM.
